pIC50: −log10 of the molar value.
Columns and labels:
[1] = tested on: L1210 murine leukemia cells; assay: Method (a): cytotoxic activity on L1210 murine leukemia cells, 48 h exposure, Coulter Counter; type: cell-based; conditions: Mus musculus, 48 h at 37° C., mean of 3 different experiments, read-out: IC50 (dose causing 50% inhibition of cell growth relative to untreated controls)
Description: Method (a): Evaluation of Cytotoxic Activity
L1210 murine leukemia cells were grown in vitro as a stationary suspension in RPMI 1640 medium supplemented with 10% fetal calf serum, 2 mM L-glutamine, 10 μM B-mercaptoethanol, 100 UI/ml penicillin and 100 μg streptomycin. For assaying the cytotoxic activity, exponentialily growing cells were seeded at the concentration of 1×10^5 cells/ml and exposed to graded doses of the compounds under evaluation for 48 h at 37° C. in an humidified atmosphere of 5% CO2. The number of surviving cells was determined with a Coulter Counter; results are expressed as IC50 (dose causing 50% inhibition of cell growth in treated cultures relative to untreated controls after 48 h treatment).
In this assay, 9-(iminomethyl-amino)-camptothecin (internal code FCE 28536) and 9-(dimethylamino-methyleneamino)-camptothecin (internal code FCE 29006) were tested and the obtained results, which represent the mean of 3 different experiments, are reported on Table 2 below.

L1210 murine leukemia = assay: Method (b): antitumor (antileukemic) activity, L1210 murine leukemia implanted ip into CD2F1 mice, median survival time; type: in vivo; conditions: 24 h after tumor cells implant (day 1)
Description: Method (b): Evaluation of Antitumor Activity
L1210 murine leukemia was maintained in DBA2 mice by weekly ip transplants of 10^5 cells/mouse. For assaying the antileukemic activity, […] were implanted ip into CD2F1 mice; graded doses of the compounds under evaluation were administered ip 24 h after tumor cells implant on day 1 controls receiving vehicle alone.
The activity of the drugs was determined evaluating the median survival time (MST) of each group of mice.
The obtained results, expressed as % T/C, are reported on Table 3 below.

[2] = Slichenmyer et al. 1993; cited from earlier work
Topoisomerase I = conditions: Wani et al. 1987; Hsiang et al. 1989; cited from earlier work

SMILES | pIC50 [1] | % T/C (MST treated mice/MST control mice × 100) (L1210 murine leukemia; 5 mg/kg ip) | % T/C (MST treated mice/MST control mice × 100) (L1210 murine leukemia; 10 mg/kg ip) [%] | % T/C (MST treated mice/MST control mice × 100) (L1210 murine leukemia; 15 mg/kg ip) [%] | solubility in aqueous solutions [2] | antitumor activity by the inhibition of Topoisomerase I (Topoisomerase I)
CC[C@@]1(O)C(=O)OCc2c1cc1n(c2=O)Cc2cc3c(N=CN(C)C)cccc3nc2-1 [FCE 29006, 9-(dimethylamino-methyleneamino)-camptothecin] | 6.92 | 150% | 163 | 175 | – | –
CC[C@@]1(O)C(=O)OCc2c1cc1n(c2=O)Cc2cc3ccccc3nc2-1 [Camptothecin, camptothecin] | – | – | – | – | low solubility in aqueous solutions | potent antitumor activity by the inhibition of Topoisomerase I
CC[C@@]1(O)C(=O)OCc2c1cc1n(c2=O)Cc2cc3c(N)cccc3nc2-1 [9-amino camptothecin] | – | – | – | – | low solubility in aqueous solutions | potent antitumor activity by the inhibition of Topoisomerase I
CC[C@@]1(O)C(=O)OCc2c1cc1n(c2=O)Cc2cc3c(NC=N)cccc3nc2-1 [FCE 28536, 9-(iminomethyl-amino)-camptothecin] | 7.09 | 150-163% | 188 | – | – | –
